Measured values taken from article PMC10762177, “Novel betulin derivatives as multidrug reversal agents targeting P-glycoprotein” (Scientific Reports, 2024).
“Also recorded” adds a separate entry of the source. Like-named read-outs stand apart in the source and are kept apart here.

Assays:
P-gp [1] = target: T1, P-gp (Homo sapiens, UniProt P08183); conditions: Rho123 accumulation, K562/Dox; cited from earlier work
K562/Dox cells [2] = assay: Doxorubicin resistance reversal assay in K562/Dox (MTT); conditions: for FR (fold reversal): Dox co-administered
Experimental: (§1) Simultaneously, viability controls were run with no addition of the dissolution solvent. The cells were incubated at 37 °C at 5% CO2 for 48 h and the same protocol described above was followed. The potency of the compounds was established by means of the fold reversal (FR) values calculated from dividing the IC50 of Dox alone by the IC50 of Dox with different concentrations of each compound tested.

P-gp [3] = target: T1, P-gp; assay: Rhodamine 123 intracellular accumulation assay in K562/Dox (flow cytometry); conditions: for FAR (fluorescence activity ratio): Rho123, K562/Dox; for MEC (minimum effective concentration) / dose-dependent behavior, b: Rho123 accumulation, K562/Dox
MA-104 cells = test system: MA-104 cells; set-up: method as in Delou et al. 2009[44]; conditions: 22 µM; ref Delou et al. 2009[44]; cited from earlier work
K562 cells [4] = assay: MTT colorimetric assay, cytotoxicity on sensitive K562; format: cell-based; conditions: for IC50: MTT, 48 h, K562
Experimental: (§2) This colorimetric technique is based on the ability of viable cells to capture MTT and reduce it through the mitochondrial enzyme succinic dehydrogenase to its insoluble form, formazan crystals. […] After this time, the plate was centrifuged at 2000 rpm for 10 min, and 100 µL of DMSO was added to dissolve the formazan crystals formed. Absorbance (Abs) was read at a wavelength of 595 nm in an iMark microplate reader (Bio-Rad, USA).

K562 cells [5] = assay: Rhodamine 123 intracellular accumulation assay in K562 (flow cytometry); conditions: for Rho123 accumulation in K562: K562, maximum concentration assayed
K562 cells [6] = assay: Doxorubicin resistance reversal assay in K562 (MTT); format: cell-based; conditions: K562, 1.56 µM
Experimental: as §1

K562 cells [7] = assay: Doxorubicin intracellular accumulation assay in K562 (flow cytometry); conditions: K562, versus negative control
[8] = test system: peripheral blood mononuclear cells (PBMC); assay: Cytotoxicity on peripheral blood mononuclear cells (MTT); format: cell-based, human; conditions: MTT, 48 h, up to 50 µM
Experimental: (§3) . PBMC were isolated by the Ficoll-Hypaque density gradient centrifugation technique of fresh heparinized blood from healthy human volunteers. The protocol was previously approved by the Catholic University of Córdoba Research Ethics Board. Signed informed consents were obtained from donors. All methods were performed in accordance with the relevant guidelines and regulations. Briefly, 1 × 10^5 cells/well in a 96-well plate were incubated with 10 µg/mL PHA, in the presence of the corresponding concentrations of the compounds or 0.5% v/v DMSO (negative control) for 48 h, and processed as above described for the MTT method. The percentages of inhibition on cell proliferation were determined by comparison with negative controls, and the corresponding IC50 values were calculated from the best fit of the concentration-dependent inhibition curves in GraphPad Prism 7.

erythrocytes = assay: Erythrocyte hemolysis assay; format: cell-based, human; conditions: maximum tested concentration of 50 µM, 1 h
Experimental: For the erythrocyte hemolysis assay, the red blood cell suspension was obtained from fresh heparinized blood collected from healthy human volunteer donors, without receiving any treatment. The blood sample was centrifuged at 2,500 rpm for 10 min at 4 °C. The supernatant was discarded, and the red blood cell pellet was subjected to two consecutive washes with sterile PBS, using the same centrifugation conditions. An aliquot of the pellet obtained was resuspended in PBS (3% v/v). The compounds were incubated at decreasing concentrations starting from 50 µM with the suspension at 37 °C for 1 h. Controls with 1% DMSO and no solvent were included.

P-gp [9] = target: T1, P-gp; assay: Doxorubicin intracellular accumulation assay in K562/Dox (flow cytometry)
K562/Dox cells [10] = assay: MTT colorimetric assay, cytotoxicity on resistant K562/Dox; format: cell-based; conditions: MTT, K562/Dox; for IC50: 48 h, read-out: IC50 K562/Dox
Experimental: as §2, with “crystals. The target compounds dissolved in DMSO (0.5% v/v as final concentration which was non-toxic to cells) at a maximum concentration of 50 µM were exposed to 5 × 10^4 cells distributed in a 96-well plate and incubated for 48 h.” for “crystals.”, “USA). The percentages of cytotoxicity were determined as compared to DMSO treated control cells, which were considered 100% viable as showing the same level of growth as the untreated cells.” for “USA).”

[11] = Cytotoxicity on peripheral blood mononuclear cells (MTT); format: cell-based, human; conditions: human
Experimental: as §3

P-gp [12] = target: T1, P-gp

T1 sequence (P08183 whole entry): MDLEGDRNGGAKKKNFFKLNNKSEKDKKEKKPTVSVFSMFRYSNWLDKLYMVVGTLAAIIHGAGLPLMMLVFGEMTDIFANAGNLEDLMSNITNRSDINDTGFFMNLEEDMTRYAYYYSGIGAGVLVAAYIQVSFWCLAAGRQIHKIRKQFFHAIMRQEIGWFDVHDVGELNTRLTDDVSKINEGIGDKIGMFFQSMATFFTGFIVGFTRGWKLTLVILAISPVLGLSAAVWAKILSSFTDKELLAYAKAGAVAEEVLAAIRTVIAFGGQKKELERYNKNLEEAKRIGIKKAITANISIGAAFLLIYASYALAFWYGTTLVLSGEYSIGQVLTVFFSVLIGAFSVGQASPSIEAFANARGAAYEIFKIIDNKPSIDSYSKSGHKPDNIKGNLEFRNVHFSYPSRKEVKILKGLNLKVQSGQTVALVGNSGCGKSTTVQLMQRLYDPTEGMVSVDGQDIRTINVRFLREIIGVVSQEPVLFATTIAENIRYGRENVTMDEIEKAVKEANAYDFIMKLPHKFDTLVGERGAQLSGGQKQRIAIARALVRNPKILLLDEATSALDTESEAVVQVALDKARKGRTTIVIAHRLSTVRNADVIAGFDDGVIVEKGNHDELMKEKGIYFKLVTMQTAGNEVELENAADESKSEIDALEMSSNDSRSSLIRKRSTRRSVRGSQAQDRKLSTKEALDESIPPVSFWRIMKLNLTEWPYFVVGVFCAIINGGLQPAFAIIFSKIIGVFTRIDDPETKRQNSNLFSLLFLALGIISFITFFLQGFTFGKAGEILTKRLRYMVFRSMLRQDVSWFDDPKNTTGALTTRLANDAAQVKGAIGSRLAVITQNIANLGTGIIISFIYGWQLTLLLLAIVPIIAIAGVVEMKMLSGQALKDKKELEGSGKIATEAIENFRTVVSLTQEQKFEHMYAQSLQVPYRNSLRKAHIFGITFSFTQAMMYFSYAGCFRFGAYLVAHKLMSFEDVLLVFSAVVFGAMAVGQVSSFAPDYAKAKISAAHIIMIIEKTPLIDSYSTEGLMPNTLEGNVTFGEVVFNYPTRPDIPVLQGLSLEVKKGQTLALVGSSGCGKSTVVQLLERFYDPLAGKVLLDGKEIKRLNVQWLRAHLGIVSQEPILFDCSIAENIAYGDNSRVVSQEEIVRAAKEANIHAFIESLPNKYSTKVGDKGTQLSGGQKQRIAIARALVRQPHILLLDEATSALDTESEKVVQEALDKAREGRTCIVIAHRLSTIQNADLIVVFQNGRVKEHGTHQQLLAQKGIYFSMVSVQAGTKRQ

Row | SMILES | MEC, Dox resistance reversal (K562/Dox cells [2]; K562/Dox) [µM] | FAR (fluorescence activity ratio) (P-gp [3]; 0.78 µM) | FAR (fluorescence activity ratio) (P-gp [3]; 1.56 µM) | FAR (fluorescence activity ratio) (P-gp [3]; 3.12 µM) | FAR (fluorescence activity ratio) (P-gp [3]; 6.25 µM) | FAR (fluorescence activity ratio) (P-gp [3]; 25 µM) | FAR (fluorescence activity ratio) (P-gp [3]; 50 µM) | IC50 (K562 cells [4]; Homo sapiens, K562, 48 h) [µM] | Rho123 accumulation in K562 (K562 cells [5]) | reversal effect on parental K562 (K562 cells [6]) | Dox accumulation in K562 (K562 cells [7]) | erythrocyte hemolysis (erythrocytes) | FR (fold reversal) (K562/Dox cells [2]; K562/Dox, 0.78 µM) | FR (fold reversal) (K562/Dox cells [2]; K562/Dox, 1.56 µM) | MEC, Dox accumulation (P-gp [9]) [µM] | FAR (fluorescence activity ratio) (P-gp [3]; 0.19 µM) | MEC (minimum effective concentration) (P-gp [3]) [µM] | dose-dependent behavior, b (P-gp [3]) | IC50 (K562/Dox cells [10]; Homo sapiens, K562, 48 h) [nM] | IC50 (K562 cells [4]) [µM] | further results
1 | C=C(C)[C@@H]1CC[C@]2(CO)CC[C@]3(C)[C@H](CC[C@@H]4[C@@]5(C)CC[C@H](O)C(C)(C)[C@@H]5CC[C@]43C)[C@@H]12 [Compound 1, betulin] | 0.39 | 1.01 ± 0.07 | 1.12 ± 0.03 | 1.23 ± 0.04 | 1.32 ± 0.06 | 2.34 ± 0.19 | 2.77 ± 0.36 |  |  |  |  |  |  |  |  |  |  |  |  |  | MEC (minimum effective concentration) (P-gp [1]): 1.56 µM; FAR (fluorescence activity ratio) (P-gp [3]; 12.50 µM): 1.80 ± 0.08
2 | C=C(C)[C@@H]1CC[C@]2(C(=O)O)CC[C@]3(C)[C@H](CC[C@@H]4[C@@]5(C)CC[C@H](O)C(C)(C)[C@@H]5CC[C@]43C)[C@@H]12 [Compound 2, betulinic acid, reference compound] |  |  |  |  |  |  | 1.05 ± 0.04 |  |  |  |  |  |  |  |  |  |  |  |  |  | Rho123 accumulation in MA-104 cells (MA-104 cells): not to alter Rho123 accumulation
3 | C=C(C)[C@@H]1CC[C@]2(COC(=O)NCCc3cc(OC)c(OC)c(OC)c3)CC[C@]3(C)[C@H](CC[C@@H]4[C@@]5(C)CC[C@H](O)C(C)(C)[C@@H]5CC[C@]43C)[C@@H]12 [Compound 6g] | 0.024 | 1.33 ± 0.14 | 1.61 ± 0.23 | 2.05 ± 0.36 | 2.62 ± 0.49 | 3.47 ± 0.61 | 4.02 ± 0.70 | > 50 | did not increase Rho123 accumulation | slight increase in Dox toxicity | did not increase Dox accumulation | devoid of toxic effects; also recorded: Neither compound induced erythrocyte hemolysis | 3.98 ± 0.71 | 5.37 ± 1.36 | 0.098 | 1.09 ± 0.03 | 0.19 | 64.49 | > 50000 |  | cytotoxicity on PBMC [8]: devoid of toxic effects; also recorded: did not reveal cytotoxicity; potency for restoring the cytotoxicity of Dox relative to compound 1 (times) (K562/Dox cells [2]; K562/Dox): 16; FR (fold reversal) (K562/Dox cells [2]; K562/Dox, 0.024 µM): 1.17 ± 0.05; FAR, Dox accumulation (P-gp [9]; 50 µM): 1.26 ± 0.02; FAR (fluorescence activity ratio) (P-gp [3]; 0.098 µM): 1.00 ± 0.04
4 | C=C(C)[C@@H]1CC[C@]2(COC(=O)N3CCN(C)CC3)CC[C@]3(C)[C@H](CC[C@@H]4[C@@]5(C)CC[C@H](O)C(C)(C)[C@@H]5CC[C@]43C)[C@@H]12 [Compound 6i] | 0.19 | 1.30 ± 0.06 | 1.41 ± 0.14 | 1.71 ± 0.06 | 2.04 ± 0.05 |  |  | 19.1 | did not increase Rho123 accumulation | did not show a reversal effect | did not increase Dox accumulation | devoid of toxic effects; also recorded: Neither compound induced erythrocyte hemolysis | 1.63 ± 0.06 | 2.69 ± 0.39 | 0.098 | 1.08 ± 0.05 | 0.39 | 40.14 | 33910 ± 90 | 19.1 ± 0.87 | toxicity (K562 cells [4]; 50 μM, K562, MTT): more than 55%; IC50 at 48 h [11]: 26.4 ± 2.88 µM; viability at 48 h, 50 µM [11]: 64%; potency for restoring the cytotoxicity of Dox relative to compound 1 (times) (K562/Dox cells [2]): nearly twice; FR (fold reversal) (K562/Dox cells [2]; K562/Dox, 0.19 µM): 1.39 ± 0.07; FAR, Dox accumulation (P-gp [9]; 25 µM): 1.27 ± 0.03; toxicity (K562/Dox cells [10]; 50 μM): more than 55%
5 | COc1cc2c(cc1OC)CN(CCc1ccc(NC(=O)c3cc(OC)c(OC)cc3NC(=O)c3cnc4ccccc4c3)cc1)CC2 [Tariquidar, tariquidar, reference compound] |  | 1.12 ± 0.03 |  |  |  |  |  | 2.4 |  |  |  |  |  |  | 0.39 |  | 0.78 |  | 2200 | 2.38 ± 0.32 | FAR (fluorescence activity ratio) (K562 cells [5]; Rho123, K562, 3.12 µM): 0.82 ± 0.11; FAR (fluorescence activity ratio) (P-gp [12]; 1.56 µM): 1.22 ± 0.05; FAR (fluorescence activity ratio) (P-gp [12]; 3.12 µM): 1.14 ± 0.03; IC50 (K562/Dox cells [10]): 2250 ± 280 nM
